Assay results: paper PMC7554770, “Develop a High-Throughput Screening Method to Identify C-P4H1 (Collagen Prolyl 4-Hydroxylase 1) Inhibitors from FDA-Approved Chemicals” (International Journal of Molecular Sciences, 2020)

Key:
Format in all cases: biochemical
[1] = molecular target: T1, C-P4H1 (collagen prolyl 4-hydroxylase 1; P4HA1 alpha subunit) (Homo sapiens, UniProt P13674); assay: Succinate-Glo Hydroxylase luminescence assay, dose response, with no-enzyme control
T1 construct: Flag-tagged P4HA1 and P4HB co-expressed in HEK-293FT cells, purified C-P4H1 tetramer; with P4HB (protein disulfide isomerase, beta subunit)
T1 sequence (P13674 18-534): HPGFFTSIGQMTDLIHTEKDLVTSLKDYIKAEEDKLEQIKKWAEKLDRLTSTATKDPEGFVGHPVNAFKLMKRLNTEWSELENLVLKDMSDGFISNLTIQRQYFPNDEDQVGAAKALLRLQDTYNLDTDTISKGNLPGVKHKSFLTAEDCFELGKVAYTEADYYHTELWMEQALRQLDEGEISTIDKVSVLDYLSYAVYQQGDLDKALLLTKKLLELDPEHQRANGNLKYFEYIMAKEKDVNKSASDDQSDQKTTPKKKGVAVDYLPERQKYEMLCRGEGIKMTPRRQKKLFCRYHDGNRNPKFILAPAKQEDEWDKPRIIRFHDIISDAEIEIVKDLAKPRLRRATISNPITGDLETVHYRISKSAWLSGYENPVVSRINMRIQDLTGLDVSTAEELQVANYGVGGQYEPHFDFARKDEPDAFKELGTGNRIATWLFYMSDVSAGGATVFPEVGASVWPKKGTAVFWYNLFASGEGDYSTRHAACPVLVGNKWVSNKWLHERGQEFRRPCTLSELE
T1 sequence (P07237 18-508 partner): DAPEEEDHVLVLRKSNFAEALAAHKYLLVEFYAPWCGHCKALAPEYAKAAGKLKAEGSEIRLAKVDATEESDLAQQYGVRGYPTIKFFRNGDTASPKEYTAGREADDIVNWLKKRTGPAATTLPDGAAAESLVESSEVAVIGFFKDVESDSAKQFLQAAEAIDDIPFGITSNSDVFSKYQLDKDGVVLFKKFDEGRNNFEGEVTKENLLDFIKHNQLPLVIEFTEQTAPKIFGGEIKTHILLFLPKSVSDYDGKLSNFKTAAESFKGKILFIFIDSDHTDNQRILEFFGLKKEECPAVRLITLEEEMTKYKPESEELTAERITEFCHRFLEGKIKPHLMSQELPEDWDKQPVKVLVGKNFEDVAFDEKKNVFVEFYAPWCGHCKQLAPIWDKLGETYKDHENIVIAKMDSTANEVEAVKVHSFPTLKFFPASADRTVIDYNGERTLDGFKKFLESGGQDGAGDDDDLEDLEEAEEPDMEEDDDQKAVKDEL

[2] = molecular target: T1, C-P4H1 (collagen prolyl 4-hydroxylase 1; P4HA1 alpha subunit); assay: Succinate-Glo Hydroxylase assay, varied co-substrate concentration
[3] = molecular target: T1, C-P4H1 (collagen prolyl 4-hydroxylase 1; P4HA1 alpha subunit); assay: Succinate-Glo Hydroxylase luminescence assay, dose response, with no-enzyme control; remark: listed apart in the source

SMILES	Succinate-Glo Hydroxylase luminescence assay, dose response, with no-enzyme cont [1]	other results
Clc1ccccc1CN1CCc2sccc2C1 [Ticlopidine]	indicating that Silodosin and Ticlopidine specifically inhibited the C-P4H1 activity in vitro	
O=C(O)CCC(=O)C(=O)O [α-KG, α-ketoglutarate]		Succinate-Glo Hydroxylase assay, varied co-substrate concentration [2]: increased concentration of GPPG and α-KG induced luminescence assay in a dose-dependent manner
CCOC(=O)c1ccc(O)c(O)c1 [DHB, ethyl-3,4-dihydroxybenzoic acid]		IC50 [3]: ~20 µM
C[C@H](Cc1cc2c(c(C(N)=O)c1)N(CCCO)CC2)NCCOc1ccccc1OCC(F)(F)F [Silodosin]	Both drugs inhibited C-P4H1 activity in a dose-dependent manner (Figure 4B,D).	
